US20230017045A1, “PYRIDINE AND PYRIMIDINE CARBOXYLATE HERBICIDES AND METHODS OF USE THEREOF” (Dow AgroSciences LLC, priority 2017, published 2023)

What follows are compounds tested on test plant species (assay: Post-emergent herbicidal activity test (greenhouse, foliar spray, visual growth reduction)). Conditions: post-emergence, 336 h, ECHCG: barnyardgrass (Echinochloa crus-galli), 140 g ai/ha, 14 days after application, read-out: Visual Growth Reduction (%) 14 Days After Application, ECHCG.
Type: in vivo
Description: Post-emergent Test: Seeds or nutlets of the desired test plant species were planted in Sun Gro Metro-Mix® 360 planting mixture, which typically has a pH of 6.0 to 6.8 and an organic matter content of about 30 percent, in plastic pots with a surface area of 64 square centimeters. In some aspects, to ensure good germination and healthy plants, a fungicide treatment and/or other chemical or physical treatment was applied. The plants were grown for 7-21 d in a greenhouse with an approximate 15 h photoperiod which was maintained at 23-29° C. during the day and 22-28° C. during the night. Nutrients and water were added on a regular basis and supplemental lighting was provided with overhead metal halide 1000-Watt lamps as necessary. Plants were used for testing when they reached the first or second true leaf stage. A weighed amount, determined by the highest rate to be tested, of each test compound was placed in a 25 mL glass vial and was dissolved in 4 mL of a 97:3 v/v mixture of acetone and DMSO to obtain concentrated stock solutions. […] The concentrated stock solutions obtained were diluted with 20 mL of an aqueous mixture containing acetone, water, isopropyl alcohol, DMSO, […] crop oil concentrate, and X-77 surfactant in a 48.5:39:10:1.5:1.0:0.02 v/v ratio to obtain spray solutions containing the application rate. Compound requirements are based upon a 12 mL application volume at a rate of 187 liters per hectare (L/ha). Formulated compounds were applied to the plant material with an overhead Mandel track sprayer equipped with […] nozzles calibrated to deliver 187 L/ha over an application area of 0.64 square meters at a spray height of 18 inches (43 cm) above the average plant canopy height. Control plants were sprayed in the same manner with the solvent blank. The treated plants and control plants were placed in a greenhouse as described above and watered by subirrigation to prevent wash-off of the test compounds. After 14 d, the condition of the test plants as compared with that of the nontreated and control plants was determined visually and scored on a scale of 0 to 100 percent where 0 corresponds to no injury and 100 corresponds to complete control. In the reporting of the results, Table A: Percent Growth Reduction Conversion Table was used.
Work on `COC(=O)c1nc(-c2ccc(C#N)cc2OC)c(F)cc1Cl` [F351, Methyl 3-chloro-6-(4-cyano-2-methoxyphenyl)-5-fluoropicolinate] yielded a pest or weed control at 140 g/ha of 30 to 44%. With `Cc1cc(-c2ccc(Cl)c(C(=O)O)n2)ccc1C(F)(F)F` [F316, 3-Chloro-6-(3-methyl-4-(trifluoromethyl)phenyl) picolinic acid] the pest or weed control at 140 g/ha was 0 to 29%.

Same assay, conditions: post-emergence, 336 h, IPOHE: ivy-leaf morning glory (Ipomoea hederacea), 140 g ai/ha, 14 days after application, read-out: Visual Growth Reduction (%) 14 Days After Application, IPOHE
For `COC(=O)c1nc(-c2ccc(C#N)cc2OC)c(F)cc1Cl` [F351, Methyl 3-chloro-6-(4-cyano-2-methoxyphenyl)-5-fluoropicolinate], the pest or weed control at 140 g/ha was 95 to 100%. `Cc1cc(-c2ccc(Cl)c(C(=O)O)n2)ccc1C(F)(F)F` [F316, 3-Chloro-6-(3-methyl-4-(trifluoromethyl)phenyl) picolinic acid] showed a pest or weed control at 140 g/ha of 60 to 74%.

Same assay, conditions: post-emergence, 336 h, KCHSC: kochia (Bassia scoparia), 140 g ai/ha, 14 days after application, read-out: Visual Growth Reduction (%) 14 Days After Application, KCHSC
Work on `COC(=O)c1nc(-c2ccc(C#N)cc2OC)c(F)cc1Cl` [F351, Methyl 3-chloro-6-(4-cyano-2-methoxyphenyl)-5-fluoropicolinate] yielded a pest or weed control at 140 g/ha of 30 to 44%. Work on `Cc1cc(-c2ccc(Cl)c(C(=O)O)n2)ccc1C(F)(F)F` [F316, 3-Chloro-6-(3-methyl-4-(trifluoromethyl)phenyl) picolinic acid] yielded a pest or weed control at 140 g/ha of 0 to 29%.

Same assay, conditions: post-emergence, 336 h, ORYSA: rice (Oryza sativa), 140 g ai/ha, 14 days after application, read-out: Visual Growth Reduction (%) 14 Days After Application, ORYSA
For `COC(=O)c1nc(-c2ccc(C#N)cc2OC)c(F)cc1Cl` [F351, Methyl 3-chloro-6-(4-cyano-2-methoxyphenyl)-5-fluoropicolinate], the pest or weed control at 140 g/ha was 0 to 29%. Compound `Cc1cc(-c2ccc(Cl)c(C(=O)O)n2)ccc1C(F)(F)F` [F316, 3-Chloro-6-(3-methyl-4-(trifluoromethyl)phenyl) picolinic acid] has a pest or weed control at 140 g/ha of 0 to 29%.

Same assay, conditions: post-emergence, 336 h, SETFA: giant foxtail (Setaria faberi), 140 g ai/ha, 14 days after application, read-out: Visual Growth Reduction (%) 14 Days After Application, SETFA
With `COC(=O)c1nc(-c2ccc(C#N)cc2OC)c(F)cc1Cl` [F351, Methyl 3-chloro-6-(4-cyano-2-methoxyphenyl)-5-fluoropicolinate] the pest or weed control at 140 g/ha was 75 to 84%. Work on `Cc1cc(-c2ccc(Cl)c(C(=O)O)n2)ccc1C(F)(F)F` [F316, 3-Chloro-6-(3-methyl-4-(trifluoromethyl)phenyl) picolinic acid] yielded a pest or weed control at 140 g/ha of 0 to 29%.

Same assay, conditions: post-emergence, 336 h, SORVU: grain sorghum (Sorghum vulgare), 140 g ai/ha, 14 days after application, read-out: Visual Growth Reduction (%) 14 Days After Application, SORVU
`COC(=O)c1nc(-c2ccc(C#N)cc2OC)c(F)cc1Cl` [F351, Methyl 3-chloro-6-(4-cyano-2-methoxyphenyl)-5-fluoropicolinate] showed a pest or weed control at 140 g/ha of 75 to 84%. For `Cc1cc(-c2ccc(Cl)c(C(=O)O)n2)ccc1C(F)(F)F` [F316, 3-Chloro-6-(3-methyl-4-(trifluoromethyl)phenyl) picolinic acid], the pest or weed control at 140 g/ha was 0 to 29%.

Same assay, conditions: post-emergence, 336 h, STEME: common chickweed (Stellaria media), 140 g ai/ha, 14 days after application, read-out: Visual Growth Reduction (%) 14 Days After Application, STEME
`COC(=O)c1nc(-c2ccc(C#N)cc2OC)c(F)cc1Cl` [F351, Methyl 3-chloro-6-(4-cyano-2-methoxyphenyl)-5-fluoropicolinate] was tested, and the pest or weed control at 140 g/ha was 0 to 29%. `Cc1cc(-c2ccc(Cl)c(C(=O)O)n2)ccc1C(F)(F)F` [F316, 3-Chloro-6-(3-methyl-4-(trifluoromethyl)phenyl) picolinic acid] was tested, and the pest or weed control at 140 g/ha was 0 to 29%.

Same assay, conditions: post-emergence, 336 h, TRZAS: wheat, spring (Triticum aestivum), 140 g ai/ha, 14 days after application, read-out: Visual Growth Reduction (%) 14 Days After Application, TRZAS
With `COC(=O)c1nc(-c2ccc(C#N)cc2OC)c(F)cc1Cl` [F351, Methyl 3-chloro-6-(4-cyano-2-methoxyphenyl)-5-fluoropicolinate] the pest or weed control at 140 g/ha was 0 to 29%. `Cc1cc(-c2ccc(Cl)c(C(=O)O)n2)ccc1C(F)(F)F` [F316, 3-Chloro-6-(3-methyl-4-(trifluoromethyl)phenyl) picolinic acid] was tested, and the pest or weed control at 140 g/ha was 0 to 29%.

Same assay, conditions: post-emergence, 336 h, blackgrass (Alopecurus myosuroides), 14 Days After Application, 140 g ai/ha, read-out: Visual Growth Reduction (%) ALOMY
`COC(=O)c1nc(-c2ccc(C#N)cc2OC)c(F)cc1Cl` [F351, Methyl 3-chloro-6-(4-cyano-2-methoxyphenyl)-5-fluoropicolinate] gave a pest or weed control at 140 g/ha of 0 to 29%. Compound `Cc1cc(-c2ccc(Cl)c(C(=O)O)n2)ccc1C(F)(F)F` [F316, 3-Chloro-6-(3-methyl-4-(trifluoromethyl)phenyl) picolinic acid] has a pest or weed control at 140 g/ha of 0 to 29%.

Same assay, conditions: post-emergence, 336 h, canada thistle (Cirsium arvense), 14 Days After Application, 140 g ai/ha, read-out: Visual Growth Reduction (%) CIRAR
`COC(=O)c1nc(-c2ccc(C#N)cc2OC)c(F)cc1Cl` [F351, Methyl 3-chloro-6-(4-cyano-2-methoxyphenyl)-5-fluoropicolinate] was tested, and the pest or weed control at 140 g/ha was 0 to 29%. `Cc1cc(-c2ccc(Cl)c(C(=O)O)n2)ccc1C(F)(F)F` [F316, 3-Chloro-6-(3-methyl-4-(trifluoromethyl)phenyl) picolinic acid] showed a pest or weed control at 140 g/ha of 30 to 44%.

Same assay, conditions: post-emergence, 336 h, crabgrass (Digitaria sanguinalis), 14 Days After Application, 140 g ai/ha, read-out: Visual Growth Reduction (%) DIGSA
For `COC(=O)c1nc(-c2ccc(C#N)cc2OC)c(F)cc1Cl` [F351, Methyl 3-chloro-6-(4-cyano-2-methoxyphenyl)-5-fluoropicolinate], the pest or weed control at 140 g/ha was 30 to 44%. With `Cc1cc(-c2ccc(Cl)c(C(=O)O)n2)ccc1C(F)(F)F` [F316, 3-Chloro-6-(3-methyl-4-(trifluoromethyl)phenyl) picolinic acid] the pest or weed control at 140 g/ha was 0 to 29%.

Same assay, conditions: post-emergence, 336 h, lambsquarters (Chenopodium album), 14 Days After Application, 140 g ai/ha, read-out: Visual Growth Reduction (%) CHEAL
Work on `COC(=O)c1nc(-c2ccc(C#N)cc2OC)c(F)cc1Cl` [F351, Methyl 3-chloro-6-(4-cyano-2-methoxyphenyl)-5-fluoropicolinate] yielded a pest or weed control at 140 g/ha of 75 to 84%. For `Cc1cc(-c2ccc(Cl)c(C(=O)O)n2)ccc1C(F)(F)F` [F316, 3-Chloro-6-(3-methyl-4-(trifluoromethyl)phenyl) picolinic acid], the pest or weed control at 140 g/ha was 30 to 44%.

Same assay, conditions: post-emergence, 336 h, redroot pigweed (Amaranthus retroflexus), 14 Days After Application, 140 g ai/ha, read-out: Visual Growth Reduction (%) AMARE
`COC(=O)c1nc(-c2ccc(C#N)cc2OC)c(F)cc1Cl` [F351, Methyl 3-chloro-6-(4-cyano-2-methoxyphenyl)-5-fluoropicolinate] showed a pest or weed control at 140 g/ha of 60 to 74%. For `Cc1cc(-c2ccc(Cl)c(C(=O)O)n2)ccc1C(F)(F)F` [F316, 3-Chloro-6-(3-methyl-4-(trifluoromethyl)phenyl) picolinic acid], the pest or weed control at 140 g/ha was 0 to 29%.

Same assay, conditions: post-emergence, 336 h, wild oat (Avena fatua), 14 Days After Application, 140 g ai/ha, read-out: Visual Growth Reduction (%) AVEFA
In the case of `COC(=O)c1nc(-c2ccc(C#N)cc2OC)c(F)cc1Cl` [F351, Methyl 3-chloro-6-(4-cyano-2-methoxyphenyl)-5-fluoropicolinate], the pest or weed control at 140 g/ha is reported as 0 to 29%. With `Cc1cc(-c2ccc(Cl)c(C(=O)O)n2)ccc1C(F)(F)F` [F316, 3-Chloro-6-(3-methyl-4-(trifluoromethyl)phenyl) picolinic acid] the pest or weed control at 140 g/ha was 0 to 29%.

Same assay, conditions: post-emergence, 336 h, yellow nutsedge (Cyperus esculentus), 14 Days After Application, 140 g ai/ha, read-out: Visual Growth Reduction (%) CYPES
Work on `COC(=O)c1nc(-c2ccc(C#N)cc2OC)c(F)cc1Cl` [F351, Methyl 3-chloro-6-(4-cyano-2-methoxyphenyl)-5-fluoropicolinate] yielded a pest or weed control at 140 g/ha of 0 to 29%. In the case of `Cc1cc(-c2ccc(Cl)c(C(=O)O)n2)ccc1C(F)(F)F` [F316, 3-Chloro-6-(3-methyl-4-(trifluoromethyl)phenyl) picolinic acid], the pest or weed control at 140 g/ha is reported as 0 to 29%.
